# Test results published in ChEMBL document CHEMBL1124729, “Plant antitumor agents. 29. Synthesis and biological activity of ring D and ring E modified analogues of camptothecin” (1990).
# Calls of active or inactive are those of the source. The calls are words filed in the database; no cut-off is given here.
# Tests used:
# Nucleic Acid [1] = test: The compound was tested for inhibitory activity against DNA relaxation by DNA topoisomerase I at dose 10-30 uM; Inactive; assay type: functional
# L1210 [2] = test: The compound was tested in vivo for life prolongation against mouse L1210 tumor cells at 40 mg/kg concentration; Inactive; assay type: functional, organism-based; design: dose 40 mg/kg
# Mus musculus [3] = species on record: Mus musculus; test: (§1) The cytotoxic activity was in vitro tested by 9PS assay method; assay type: functional; settings: read-out: ED50 (the source's name)
# P388 [4] = test: The compound was tested in vivo for life prolongation against mouse P388 tumor cells at 40 mg/kg concentration; No toxicity; assay type: functional, organism-based; design: dose 40 mg/kg
# KB cells (Homo sapiens) = test: The cytotoxic activity in vitro by 9KB assay method; settings: read-out: ED50 (the source's name)
# [5] = The cytotoxic activity was in vitro tested by 9PS assay method.; assay type: functional; settings: Mus musculus; read-out: ED50 (the source's name)
# Nucleic Acid [6] = test: The compound was tested for inhibitory activity against DNA relaxation by DNA topoisomerase I at dose 30 uM; assay type: functional
# Mus musculus [7] = species on record: Mus musculus; test: The cytotoxic activity in vitro by 9KB assay method.; assay type: functional; settings: read-out: ED50 (the source's name)
# Nucleic Acid [8] = test: The compound was tested for inhibitory activity against DNA relaxation by DNA topoisomerase I at dose 100 uM; assay type: functional
# L1210 [9] = test: The compound was tested in vivo for life prolongation against mouse L1210 tumor cells at 80 mg/kg concentration; Inactive; assay type: functional, organism-based; design: dose 80 mg/kg
# L1210 (Mus musculus) [10] = test: The compound was tested in vivo for life prolongation against mouse L1210 tumor cells at 80 mg/kg concentration; No toxicity
# Nucleic Acid [11] = test: The compound was tested for inhibitory activity against DNA relaxation by DNA topoisomerase I at dose 10 uM; assay type: functional
# L1210 [12] = test: The compound was tested in vivo for life prolongation against mouse L1210 tumor cells at 4 mg/kg concentration; assay type: functional
# P388 [13] = test: The compound was tested in vivo for life prolongation against mouse P388 tumor cells at 4 mg/kg concentration; assay type: functional
# [14] = as §1; assay type: functional; settings: Mus musculus; read-out: ED50 (the source's name)
# P388 [15] = test: The compound was tested in vivo for life prolongation against mouse P388 tumor cells at 8 mg/kg concentration; assay type: functional
# L1210 [16] = test: The compound was tested in vivo for life prolongation against mouse L1210 tumor cells at 30 mg/kg concentration; Inactive; assay type: functional, organism-based; design: dose 30 mg/kg
# L1210 (Mus musculus) [17] = test: The compound was tested in vivo for life prolongation against mouse L1210 tumor cells at 30 mg/kg concentration; Nontoxic
SMILES,inhibition (Nucleic Acid [1]),EC50 (Mus musculus [3]),EC50 (KB cells (Homo sapiens)),inhibition (Nucleic Acid [6]),other results
CCC1(N)C(=O)OCc2c1cc1n(c2=O)Cc2cc3ccccc3nc2-1.Cl (centres undefined),inactive,3.4 µg/mL,1.6 µg/mL,,T/C x100 (L1210 [2]): inactive; T/C x100 (P388 [4]): No toxicity
CCC1(O)C(=O)OCc2cc3c(cc21)-c1nc2ccccc2cc1C3 (centres undefined),,,,6%,EC50 [5]: 2.5 µg/mL; EC50 (Mus musculus [7]): 1.3 µg/mL; inhibition (Nucleic Acid [8]): 38%
CC[C@@]1(O)C(=O)NCc2c1cc1n(c2=O)Cc2cc3ccccc3nc2-1,inactive,3 µg/mL,> 10 µg/mL,,T/C x100 (L1210 [9]): inactive; T/C x100 (L1210 (Mus musculus) [10]): No toxicity
CCC1(O)C(=O)OCc2c1ccc1c2-c2nc3ccccc3cc2C1 (centres undefined),,> 10 µg/mL,> 10 µg/mL,0%,
CC[C@@]1(O)C(=O)OCc2c1cc1n(c2=O)Cc2cc3ccccc3nc2-1 [CAMPTOTHECIN],,0.08 µg/mL,0.02 µg/mL,85%,inhibition (Nucleic Acid [11]): 76%; T/C x100 (L1210 [12]): 200%; T/C x100 (P388 [13]): 199%
CCC1(O)C(=O)OCc2c1cc1n(c2=O)Cc2cc3ccccc3nc2-1 (centres undefined),,,0.03 µg/mL,48%,inhibition (Nucleic Acid [11]): 39%; EC50 [14]: 0.04 µg/mL; inhibition (Nucleic Acid [8]): 70%; T/C x100 (P388 [15]): 220%
CCC1(N=[N+]=[N-])C(=O)OCc2c1cc1n(c2=O)Cc2cc3ccccc3nc2-1 (centres undefined),inactive,> 10 µg/mL,> 10 µg/mL,,T/C x100 (L1210 [16]): inactive; T/C x100 (L1210 (Mus musculus) [17]): Non-toxic
